Each structure is given as a SMILES string. Entries after “also recorded” stand apart in the source; their conditions may differ.

For orientation: Ki means the dissociation constant of the complex between target and ligand, obtained from inhibition or displacement.

Experiment [1] deals with DRG neurons. Particulars: cited from earlier work.
Experiment [2] addresses PIP5K1C (Homo sapiens, UniProt O60331). As to the kind of experiment: ATP competition studies using the mobility shift assay. The class given is biochemical. Particulars: read-out: average Ki; two independent ATP competition studies.
Experiment [3] relates to PIP5K1C and PIP4K2C. The conditions noted are these: for PIP5K1C and PIP4K2C; cited from earlier work.
For experiment [4], the system named is pain hypersensitivity. Particulars: injected intrathecally, rodent models of chronic pain; listed as UNC3230; cited from earlier work.

Sequence of PIP5K1C (O60331 whole entry): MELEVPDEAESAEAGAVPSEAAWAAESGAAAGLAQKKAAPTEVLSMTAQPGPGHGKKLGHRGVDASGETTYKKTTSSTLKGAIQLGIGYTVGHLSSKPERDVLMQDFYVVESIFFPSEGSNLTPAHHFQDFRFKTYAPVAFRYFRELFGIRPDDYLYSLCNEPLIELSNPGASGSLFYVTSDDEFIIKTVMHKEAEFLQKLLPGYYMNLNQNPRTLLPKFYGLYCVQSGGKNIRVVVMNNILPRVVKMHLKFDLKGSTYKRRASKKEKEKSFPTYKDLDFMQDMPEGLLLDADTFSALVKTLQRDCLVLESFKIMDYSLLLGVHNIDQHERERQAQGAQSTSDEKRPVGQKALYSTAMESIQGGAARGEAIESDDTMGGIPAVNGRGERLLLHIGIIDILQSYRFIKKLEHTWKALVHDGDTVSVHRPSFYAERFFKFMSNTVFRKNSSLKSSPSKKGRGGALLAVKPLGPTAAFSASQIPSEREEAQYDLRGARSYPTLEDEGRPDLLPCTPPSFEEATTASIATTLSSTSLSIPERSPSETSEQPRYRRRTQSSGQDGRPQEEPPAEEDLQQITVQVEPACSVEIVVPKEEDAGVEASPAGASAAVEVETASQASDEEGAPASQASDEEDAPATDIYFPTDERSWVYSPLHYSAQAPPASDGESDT

As to `NC(=O)c1nc(Nc2ccccc2)sc1NC(=O)C1CCCCC1` [Compound 1], the “effect on PIP2 in DRG neurons” value in experiment [1] is listed as “reduced PIP2”. The Ki in experiment [2] turned out to be 23 nM. Besides, the selectivity result in experiment [3] is listed as “highly selective”. Further, the “effect on pain hypersensitivity / nociceptive sensitization” value in experiment [4] is “reduce nociceptive sensitization; also recorded: attenuated pain hypersensitivity”.

These data come from PMC4610143 (Journal of biomolecular screening, 2014).
